Source: patent US5032109A, “Electrolytic transdermal delivery of polypeptides” (Drug Delivery Systems Inc., priority 1989, dated 1991)
Counter-ions that a name gives are not always drawn.

Columns and labels:
[1] = from Herkovits et al. 1978, cited from earlier work; for Setschenow constant, for --CH2--: average hydrophobic group; for Setschenow constant, for peptide: average peptide group; for Setschenow constant, sum: peptide plus hydrophobic; for -F.° (free energy of transfer): transfer from water to water plus cosolvent
[2] = Electrical conductivity of urine in diabetes insipidus volunteers wearing Pitressin patches (Model Example 2); format: in vivo, human; details: powered large patch, 300 units Pitressin, five days
Procedure: Six adult male volunteers each having been diagnosed as having diabetes insipidus are tested. Three are fitted with the large-size human patch, as in Example 2, and the three controls are fitted with drug-loaded, identical patches without batteries.
The drug reservoirs of the large electrolytic patches contain 15 ml (300 units) of Pitressin (Parke-aDavis Co., Morris Plains, N.J.). The return reservoir contains 0.9 percent saline buffered to pH 7.2 with ammonium dihydrogen phosphate.
Urine samples are taken from each subject three times per day for five days.

[3] = Total urine output of beagle dogs wearing lypressin electrolytic patches (Model Example 1); format: in vivo; details: four beagle dogs, powered patch, 10 ua/cm^2, ten days, Diapid 0.185 mg lypressin/ml
Procedure: Eight beagle dogs are employed. All of them are clipped on the back, washed with castille soap, and fitted with the small animal electrolytic patches of Example 1, four of them without batteries.
The drug reservoir of each patch contains 6 ml. Diapid 50 USP, 0.185 mg lypressin/ml. The return reservoir contains 0.9 percent saline. A current regulator is set to deliver 10 ua/cm^2.
Over a period of ten days the total urine output of each dog is measured by standard techniques.

[4] = Blood pressure of hypertensive volunteers wearing atriopeptin patches (Model Example 3); format: in vivo, human; details: hypertensive female volunteers, powered patches, 0.01M atriopeptin in 0.1M sodium perchlorate, about 10 ua/cm^2
Procedure: Ten adult female volunteers, diagnosed as having hypertension, are chosen for this experiment. All are fitted with the large-size electrolytic transdermal patch, as in Example 2. […] Five control patches have no batteries. […] The blood pressure of the ten subjects is measured four times a day.

[5] = set-up: species or system human; details: in vivo
Source text: Ten adult female volunteers, diagnosed as having hypertension, are chosen for this experiment. All are fitted with the large-size electrolytic transdermal patch, as in Example 2. […] Five control patches have no batteries.

drug delivered per hour [5]	Compound	Setschenow constant, for --CH2-- [1]	Setschenow constant, for peptide [1]	Setschenow constant, sum [1]	-F.° (free energy of transfer) [1] [cal/mo]	electrical conductivity of the urine versus control subjects (patches without batteries) [2]	average total urine volume versus control dogs (patches without batteries) [3]	average blood pressure versus controls (patches without batteries) [4]
–	CCO [Ethanol]	-0.014	+0.037	0.023	31	–	–	–
–	NC(=O)CC[C@@H]1NC(=O)[C@H](Cc2ccccc2)NC(=O)[C@H](Cc2ccc(O)cc2)NC(=O)[C@@H](N)CSSC[C@@H](C(=O)N2CCC[C@H]2C(=O)N[C@@H](CCCN=C(N)N)C(=O)NCC(N)=O)NC(=O)[C@H](CC(N)=O)NC1=O [Pitressin, vasopressin]	–	–	–	–	significantly higher	–	–
–	[Cl-].[Na+] [Sodium chloride]	0.033	-0.037	-0.004	-5	–	–	–
–	[O-][Cl+3]([O-])([O-])O [Sodium perchlorate]	0.021	-0.097	-0.076	-104	–	–	–
–	[I-].[K+] [Potassium iodide]	0.01	-0.083	-0.073	-100	–	–	–
–	CCC(=O)[O-].[Na+] [Sodium proprionate]	–	–	-0.017	-23	–	–	–
–	N=C(N)N [Guanidine hydrochloride, guanidine hydrochloride]	-0.027	-0.061	-0.088	-120	–	–	–
–	[Br-].[Na+] [Sodium bromide]	0.025	-0.037	-0.012	-16	–	–	–
–	NCCCC[C@H](NC(=O)[C@@H]1CCCN1C(=O)[C@@H]1CSSC[C@H](N)C(=O)N[C@@H](Cc2ccc(O)cc2)C(=O)N[C@@H](Cc2ccccc2)C(=O)N[C@@H](CCC(N)=O)C(=O)N[C@@H](CC(N)=O)C(=O)N1)C(=O)NCC(N)=O [lypressin]	–	–	–	–	–	significantly lower	–
–	CCCNC(N)=O [Propylurea]	–	–	-0.047	-64	–	–	–
–	[I-].[Na+] [Sodium iodide]	0.01	-0.087	-0.077	-105	–	–	–
about 200 nanograms of drug per hour	atriopeptin	–	–	–	–	–	–	significantly lower
–	C1COCCO1 [Dioxane]	-0.013	+0.029	0.016	22	–	–	–
–	CCCC(=O)[O-].[Na+] [Sodium butyrate]	–	–	-0.038	-51	–	–	–
–	NC(N)=O [Urea]	-0.01	-0.018	-0.028	-38	–	–	–
